For this test, the system named is G1H-G93A transgenic mice. Briefly: Histopathological study: number of spinal cord anterior horn cells. The test is classed as in vivo, mouse. The following applies: end stage; for difference to placebo group in number of spinal cord anterior horn cells (cervical, thoracic or lumbar segment): P>0.05, Mann-Whitney's U test; for number of spinal cord anterior horn cells in the cervical segment / number of spinal cord anterior horn cells in the lumbar segment / number of spinal cord anterior horn cells in the thoracic segment: per five HE sections, average±SD. How it is done: The mouse supplied to the experiment is anesthetized by intraperitoneal injection of pentobarbital sodium in an amount of 1 mL per kg of the mouse body weight. After confirming that the mouse is completely under anesthesia, laparotomy and thoracotomy are performed, and blood is completely removed from the visceral organs of the whole body by perfusion of physiological saline at 37° C. via the left ventricle and aorta. The complete removal of blood from the visceral organs of the whole body is carried out by confirming complete removal of the blood of the aorta in the thoracic part and abdominal part, mesenteric arteries, liver, kidneys, and small arteries on the surfaces of the stomach, small intestine and large intestine under direct visual inspection. Subsequently, perfusion of 50 mL of physiological saline at 37° C. is performed. Immediately thereafter, the perfusion is performed with a fixative (4% paraformaldehyde supplemented with 0.1 M cacodylate buffer, pH 7.4). The spinal cord is removed and re-fixed with the same fixative for 18 hours. After the fixation of spinal cord tissue, each spinal cord segments is cut out to examine the spinal cord tissue. For the detailed analyses of spinal cord tissues, two segments of the cervical spinal cord (upper and lower cervical segments), three segments of the thoracic spinal cord (upper, middle, and lower thoracic segments), and two segments of lumbar spinal cord (upper and lower lumbar segments) were cut out to provide seven segments in total. Each spinal cord segments are respectively embedded in paraffin to produce paraffin blocks, and then cut into paraffin sections having a thickness of 5 μm using a microtome. The paraffin sections are subjected to hematoxylin and eosin (HE) staining.
For a quantitative analysis, serial 25 paraffin sections having a thickness of 5 μm were produced in series from the respective segment paraffin blocks of the spinal cord, and the 1st section, 7th section, 13th section, 19th section and 25th section were selected and subjected to HE staining. Specifically, paraffin sections were selected such that one paraffin section was taken at a […], and 5 HE preparations were produced from a single spinal cord segments. Therefore, 10 HE preparations from two areas for the entire cervical spinal cord, 15 HE preparations from three areas for the entire thoracic spinal cord, and 10 HE preparations from two areas for the entire lumbar spinal cord, were produced.
In order to calculate the number of motor neurons in the anterior horn, all of the HE stained sections were observed under a light microscope (BX41: Olympus Corp., Tokyo, Japan) equipped with a 3CCD digital color camera system for the microscope (FX380: Olympus Corp., Tokyo, Japan). Subsequently, photographs of the anterior horn region (corresponding to VII, VIII and IX Rexed areas) in the HE stained sections of the respective myelomere tissues of the spinal cord were taken, and the images were analyzed using an image analysis-filing software (FLVFS-LS Ver. 1.12: Olympus Corp., Tokyo, Japan). In regard to the definition of the motor neuron in the anterior horn of spinal cord (spinal cord anterior horn cells), cells in the HE stained sections, which have a nucleus carrying a definite nucleolus and contain a cell body having a diameter of 25 μm or more, were selected as the spinal cord anterior horn cells (Klivenyi P, et al., Nature Med 1999; 5:347-351, Kong J & Xu Z, J Neurosci 1998; 18:3241-3250, and Stephens B, et al., Neuropathol Appl Neurobiol 2001; 27:352-361). Based on this definition, the number of spinal cord anterior horn cells was counted for each of the HE stained sections. The respective numbers of spinal cord anterior horn cells in the cervical spinal cord, thoracic spinal cord and lumbar spinal cord of one mouse was calculated from the total number of spinal cord anterior horn cells in five HE stained sections. […]

The mark [1] stands for this setting: 5 mg/kg oral daily from 80th day after birth (before onset).
The mark [2] stands for this setting: 5 mg/kg oral daily from the day of onset (after onset).

Molecules are shown by their SMILES.

For the compound `CC(C)(C)COc1ccc(-n2cc(C(=O)O)cn2)cc1C#N` [compound (a), 1-[3-cyano-4-(2,2-dimethylpropoxy)phenyl]-1H-pyrazole-4-carboxylic acid], under setting [1], the “difference to placebo group in number of spinal cord anterior horn cells (cervical, thoracic or lumbar segment)” value (from here on “difference to placebo group in number”) is on record as “no significant difference”; the “number of spinal cord anterior horn cells in the cervical segment” value (from here on “number … in the cervical segment”) was determined as 3.3±3.1; the “number of spinal cord anterior horn cells in the lumbar segment” value (shortened to “number … in the lumbar segment”) is recorded as 3.7±3.3; the “number of spinal cord anterior horn cells in the thoracic segment” value (from here on “number … in the thoracic segment”) is 1.6±2.1. Moreover, under setting [2], the “difference to placebo group in number” value is on record as “no significant difference”; the “number … in the cervical segment” value is recorded as 4.8±3.7; the “number … in the lumbar segment” value came out at 4.1±4.4; the “number … in the thoracic segment” value was determined as 2.3±2.2.
`N#Cc1cc(-c2n[nH]c(-c3ccncc3)n2)ccn1` [compound (b), 4-(5-pyridin-4-yl-1H-[1,2,4]triazol-3-yl)pyridine-2-carbonitrile]: under setting [1], the “difference to placebo group in number” value was “no significant difference”; the “number … in the cervical segment” value is recorded as 4.6±2.0; the “number … in the lumbar segment” value turned out to be 5.3±2.7; the “number … in the thoracic segment” value is given as 1.9±1.7.
On the same counts, the results for `Cc1nc(-c2ccc(OCC(C)C)c(C#N)c2)sc1C(=O)O` [compound (c), 2-[3-cyano-4-(2-methylpropoxy)phenyl]-4-methyl-5-thiazolecarboxylic acid] are “no significant difference”, 5.2±4.3, 4.1±3.8 and 1.6±1.7.
